# Patent US11807644B2 (PMV Pharmaceuticals, Inc., priority 2020, dated 2023)
# Biological target: T1, recombinant His-tag Y220C p53 DBD protein (Homo sapiens, UniProt P04637, Y220C)
# T1 construct: recombinant His-tag Y220C p53 DBD protein (amino acids #˜94-312)
# Test: In vitro DNA binding activity assay (TR-FRET): binding of His-tag Y220C p53 DBD to biotin-labeled consensus DNA
# Format: biochemical
# Conditions: SC150 = concentration to increase DNA binding by […], His-tag Y220C p53 DBD, biotin-labeled consensus DNA
row,Y220C SC150 (μM),Structure (SMILES)
1,* (* = 0 μM ≤ SC150 < 0.1 μM),"CN1CC[C@@H](Nc2cccc3c2cc(-c2noc(CNC(=O)c4ccn(C5CCCC5)c4)n2)n3CC(F)(F)F)[C@@H](F)C1 [Compound 319B, 1-cyclopentyl-N-{[3-(4-{[(3S,4R)-3-fluoro-1-methylpiperidin-4-yl]amino}-1-(2,2,2-trifluoroethyl)-1H-indol-2-yl)-1,2,4-oxadiazol-5-yl]methyl}-1H-pyrrole-3-carboxamide]"
2,* (* = 0 μM ≤ SC150 < 0.1 μM),"CCN1CC[C@@H](Nc2cccc3c2cc(-c2noc(CNC(=O)c4ccn(C5CCCC5)c4)n2)n3CC(F)(F)F)[C@@H](F)C1 [Compound 320B, 1-cyclopentyl-N-{[3-(4-{[(3S,4R)-1-ethyl-3-fluoropiperidin-4-yl]amino}-1-(2,2,2-trifluoroethyl)-1H-indol-2-yl)-1,2,4-oxadiazol-5-yl]methyl}-1H-pyrrole-3-carboxamide]"
3,* (* = 0 μM ≤ SC150 < 0.1 μM),"CN1CC[C@@H](Nc2cccc3c2cc(-c2noc(CNC(=O)c4cnn(C5CCOC5)c4)n2)n3CC(F)(F)F)[C@@H](F)C1 (stereo partly drawn) [Compound 321B, N-{[3-(4-{[(3S,4R)-3-fluoro-1-methylpiperidin-4-yl]amino}-1-(2,2,2-trifluoroethyl)-1H-indol-2-yl)-1,2,4-oxadiazol-5-yl]methyl}-1-(oxolan-3-yl)-1H-pyrazole-4-carboxamide]"
4,* (* = 0 μM ≤ SC150 < 0.1 μM),"CN1CC[C@@H](Nc2cccc3c2cc(-c2noc(CNC(=O)c4ccn(C5CCOC5)c4)n2)n3CC(F)(F)F)[C@@H](F)C1 (stereo partly drawn) [Compound 323B, N-{[3-(4-{[(3S,4R)-3-fluoro-1-methylpiperidin-4-yl]amino}-1-(2,2,2-trifluoroethyl)-1H-indol-2-yl)-1,2,4-oxadiazol-5-yl]methyl}-1-(oxolan-3-yl)-1H-pyrrole-3-carboxamide]"
5,* (* = 0 μM ≤ SC150 < 0.1 μM),"CCN1CC[C@@H](Nc2cccc3c2cc(-c2noc(CNC(=O)c4ccn(C5CCOC5)c4)n2)n3CC(F)(F)F)[C@@H](F)C1 (stereo partly drawn) [Compound 324B, N-{[3-(4-{[(3S,4R)-1-ethyl-3-fluoropiperidin-4-yl]amino}-1-(2,2,2-trifluoroethyl)-1H-indol-2-yl)-1,2,4-oxadiazol-5-yl]methyl}-1-(oxolan-3-yl)-1H-pyrrole-3-carboxamide]"
6,* (* = 0 μM ≤ SC150 < 0.1 μM),"CN1CC[C@@H](Nc2cccc3c2cc(-c2noc(CNC(=O)c4cnn(C5CCOCC5)c4)n2)n3CC(F)(F)F)[C@@H](F)C1 [Compound 325B, N-{[3-(4-{[(3S,4R)-3-fluoro-1-methylpiperidin-4-yl]amino}-1-(2,2,2-trifluoroethyl)-1H-indol-2-yl)-1,2,4-oxadiazol-5-yl]methyl}-1-(oxan-4-yl)-1H-pyrazole-4-carboxamide]"
7,* (* = 0 μM ≤ SC150 < 0.1 μM),"CN1CC[C@@H](Nc2cccc3c2cc(-c2noc(CNC(=O)c4cn(C5CC5)cn4)n2)n3CC(F)(F)F)[C@@H](F)C1 [Compound 327B, 1-cyclopropyl-N-{[3-(4-{[(3S,4R)-3-fluoro-1-methylpiperidin-4-yl]amino}-1-(2,2,2-trifluoroethyl)-1H-indol-2-yl)-1,2,4-oxadiazol-5-yl]methyl}-1H-imidazole-4-carboxamide]"
8,* (* = 0 μM ≤ SC150 < 0.1 μM),"CCN1CC[C@@H](Nc2cccc3c2cc(-c2noc(CNC(=O)c4ccn(C5CCOCC5)c4)n2)n3CC(F)(F)F)[C@@H](F)C1 [Compound 333B, N-{[3-(4-{[(3S,4R)-1-ethyl-3-fluoropiperidin-4-yl]amino}-1-(2,2,2-trifluoroethyl)-1H-indol-2-yl)-1,2,4-oxadiazol-5-yl]methyl}-1-(oxan-4-yl)-1H-pyrrole-3-carboxamide]"
9,* (* = 0 μM ≤ SC150 < 0.1 μM),"CN1CC[C@@H](Nc2cccc3c2cc(-c2noc(CNC(=O)c4ccn(C5CCOCC5)c4)n2)n3CC(F)(F)F)[C@@H](F)C1 [Compound 335B, N-{[3-(4-{[(3S,4R)-3-fluoro-1-methylpiperidin-4-yl]amino}-1-(2,2,2-trifluoroethyl)-1H-indol-2-yl)-1,2,4-oxadiazol-5-yl]methyl}-1-(oxan-4-yl)-1H-pyrrole-3-carboxamide]"
10,* (* = 0 μM ≤ SC150 < 0.1 μM),"CN1CC[C@@H](Nc2cccc3c2cc(-c2noc(CNC(=O)c4cnn(C5CCC(F)C5)c4)n2)n3CC(F)(F)F)[C@@H](F)C1 (stereo partly drawn) [Compound 339B, N-{[3-(4-{[(3S,4R)-3-fluoro-1-methylpiperidin-4-yl]amino}-1-(2,2,2-trifluoroethyl)-1H-indol-2-yl)-1,2,4-oxadiazol-5-yl]methyl}-1-(3-fluorocyclopentyl)-1H-pyrazole-4-carboxamide]"

# The next lines start with the molecule.
row,Structure (SMILES),Y220C SC150 (μM)
1,"CC(C)N1CC[C@@H](Nc2cccc3c2cc(-c2noc(CNC(=O)c4ccn(C(C)(C)C)c4)n2)n3CC(F)(F)F)[C@@H](F)C1 [Compound 317B, 1-tert-butyl-N-{[3-(4-{[(3S,4R)-3-fluoro-1-(propan-2-yl)piperidin-4-yl]amino}-1-(2,2,2-trifluoroethyl)-1H-indol-2-yl)-1,2,4-oxadiazol-5-yl]methyl}-1H-pyrrole-3-carboxamide]",* (* = 0 μM ≤ SC150 < 0.1 μM)
2,"CC(C)N1CC[C@@H](Nc2cccc3c2cc(-c2noc(CNC(=O)c4cn(C(C)(C)C)cn4)n2)n3CC(F)(F)F)[C@@H](F)C1 [Compound 318B, 1-tert-butyl-N-{[3-(4-{[(3S,4R)-3-fluoro-1-(propan-2-yl)piperidin-4-yl]amino}-1-(2,2,2-trifluoroethyl)-1H-indol-2-yl)-1,2,4-oxadiazol-5-yl]methyl}-1H-imidazole-4-carboxamide]",* (* = 0 μM ≤ SC150 < 0.1 μM)
3,"Cc1c(C(=O)NCc2nc(-c3cc4c(N[C@@H]5CCN(C)C[C@@H]5F)cccc4n3CC(F)(F)F)no2)cnn1C(C)(C)C [Compound 322B, 1-tert-butyl-N-{[3-(4-{[(3S,4R)-3-fluoro-1-methylpiperidin-4-yl]amino}-1-(2,2,2-trifluoroethyl)-1H-indol-2-yl)-1,2,4-oxadiazol-5-yl]methyl}-5-methyl-1H-pyrazole-4-carboxamide]",* (* = 0 μM ≤ SC150 < 0.1 μM)
4,"CN1CC[C@@H](Nc2cccc3c2cc(-c2noc(CNC(=O)c4cnn(C5CCCCC5)c4)n2)n3CC(F)(F)F)[C@@H](F)C1 [Compound 326B, 1-cyclohexyl-N-{[3-(4-{[(3S,4R)-3-fluoro-1-methylpiperidin-4-yl]amino}-1-(2,2,2-trifluoroethyl)-1H-indol-2-yl)-1,2,4-oxadiazol-5-yl]methyl}-1H-pyrazole-4-carboxamide]",* (* = 0 μM ≤ SC150 < 0.1 μM)
5,"CC(C)(C)n1ccc(C(=O)NCc2nc(-c3cc4c(NC5CCC(F)(F)CC5)cccc4n3CC(F)(F)F)no2)c1 [Compound 328B, 1-tert-butyl-N-[(3-{4-[(4,4-difluorocyclohexyl)amino]-1-(2,2,2-trifluoroethyl)-1H-indol-2-yl}-1,2,4-oxadiazol-5-yl)methyl]-1H-pyrrole-3-carboxamide]",* (* = 0 μM ≤ SC150 < 0.1 μM)
6,CC(C)(C)n1cnc(C(=O)NCc2nc(-c3cc4c(N[C@@H]5CCN(C6CC6)C[C@@H]5F)cccc4n3CC(F)(F)F)no2)c1 [Compound 329B],* (* = 0 μM ≤ SC150 < 0.1 μM)
7,"CC(C)(C)n1ccc(C(=O)NCc2nc(-c3cc4c(N[C@@H]5CCN(C6CC6)C[C@@H]5F)cccc4n3CC(F)(F)F)no2)c1 [Compound 330B, 1-tert-butyl-N-{[3-(4-{[(3S,4R)-1-cyclopropyl-3-fluoropiperidin-4-yl]amino}-1-(2,2,2-trifluoroethyl)-1H-indol-2-yl)-1,2,4-oxadiazol-5-yl]methyl}-1H-pyrrole-3-carboxamide]",* (* = 0 μM ≤ SC150 < 0.1 μM)
8,"CC(C)(C)n1cc(C(=O)NCc2nc(-c3cc4c(N[C@@H]5CCCC[C@@H]5F)cccc4n3CC(F)(F)F)no2)cn1 [Compound 331B, 1-tert-butyl-N-{[3-(4-{[(1R,2S)-2-fluorocyclohexyl]amino}-1-(2,2,2-trifluoroethyl)-1H-indol-2-yl)-1,2,4-oxadiazol-5-yl]methyl}-1H-pyrazole-4-carboxamide]",* (* = 0 μM ≤ SC150 < 0.1 μM)
9,"CC(C)(C)n1ccc(C(=O)NCc2nc(-c3cc4c(NC5CCn6nccc6C5)cccc4n3CC(F)(F)F)no2)c1 (stereo not shown) [Compound 332B, 1-tert-butyl-N-({3-[4-({4H,5H,6H,7H-pyrazolo[1,5-a]pyridin-5-yl}amino)-1-(2,2,2-trifluoroethyl)-1H-indol-2-yl]-1,2,4-oxadiazol-5-yl}methyl)-1H-pyrrole-3-carboxamide]",* (* = 0 μM ≤ SC150 < 0.1 μM)
10,"CCN1CC[C@@H](Nc2cccc3c2cc(-c2noc(CNC(=O)c4cnn(C5CCOCC5)c4)n2)n3CC(F)(F)F)[C@@H](F)C1 [Compound 334B, N-{[3-(4-{[(3S,4R)-1-ethyl-3-fluoropiperidin-4-yl]amino)-1-(2,2,2-trifluoroethyl)-1H-indol-2-yl)-1,2,4-oxadiazol-5-yl]methyl}-1-(oxan-4-yl)-1H-pyrazole-4-carboxamide]",* (* = 0 μM ≤ SC150 < 0.1 μM)
11,"COCCN1CC[C@@H](Nc2cccc3c2cc(-c2noc(CNC(=O)c4ccn(C(C)(C)C)c4)n2)n3CC(F)(F)F)[C@@H](F)C1 [Compound 337B, 1-tert-butyl-N-{[3-(4-{[(3S,4R)-3-fluoro-1-(2-methoxyethyl)piperidin-4-yl]amino}-1-(2,2,2-trifluoroethyl)-1H-indol-2-yl)-1,2,4-oxadiazol-5-yl]methyl}-1H-pyrrole-3-carboxamide]",* (* = 0 μM ≤ SC150 < 0.1 μM)
12,"COCCN1CC[C@@H](Nc2cccc3c2cc(-c2noc(CNC(=O)c4cnn(C(C)(C)C)c4)n2)n3CC(F)(F)F)[C@@H](F)C1 [Compound 338B, 1-tert-butyl-N-{[3-(4-{[(3S,4R)-3-fluoro-1-(2-methoxyethyl)piperidin-4-yl]amino}-1-(2,2,2-trifluoroethyl)-1H-indol-2-yl)-1,2,4-oxadiazol-5-yl]methyl}-1H-pyrazole-4-carboxamide]",* (* = 0 μM ≤ SC150 < 0.1 μM)
